Patent US20140073651A1, “BENZAMIDE DERIVATIVES AS P2X7 RECEPTOR ANTAGONISTS” (Actelion Pharmaceuticals Ltd., priority 2011, published 2014)

target: T1, human recombinant P2X7 receptor (Homo sapiens, UniProt Q99572); test: YO-PRO assay (YO-PRO-1 uptake) in HEK cells stably expressing P2X7; assay type: cell-based; conditions: HEK-293 cells expressing human recombinant P2X7 receptor; ATP 250 μM, 90 minutes; YO-PRO-1 fluorescence (FLIPR tetra); read-out: IC50 (antagonistic activity with respect to the P2X7 receptor)
T1 construct: expressed in transfected cells
T1 sequence (Q99572 1-595): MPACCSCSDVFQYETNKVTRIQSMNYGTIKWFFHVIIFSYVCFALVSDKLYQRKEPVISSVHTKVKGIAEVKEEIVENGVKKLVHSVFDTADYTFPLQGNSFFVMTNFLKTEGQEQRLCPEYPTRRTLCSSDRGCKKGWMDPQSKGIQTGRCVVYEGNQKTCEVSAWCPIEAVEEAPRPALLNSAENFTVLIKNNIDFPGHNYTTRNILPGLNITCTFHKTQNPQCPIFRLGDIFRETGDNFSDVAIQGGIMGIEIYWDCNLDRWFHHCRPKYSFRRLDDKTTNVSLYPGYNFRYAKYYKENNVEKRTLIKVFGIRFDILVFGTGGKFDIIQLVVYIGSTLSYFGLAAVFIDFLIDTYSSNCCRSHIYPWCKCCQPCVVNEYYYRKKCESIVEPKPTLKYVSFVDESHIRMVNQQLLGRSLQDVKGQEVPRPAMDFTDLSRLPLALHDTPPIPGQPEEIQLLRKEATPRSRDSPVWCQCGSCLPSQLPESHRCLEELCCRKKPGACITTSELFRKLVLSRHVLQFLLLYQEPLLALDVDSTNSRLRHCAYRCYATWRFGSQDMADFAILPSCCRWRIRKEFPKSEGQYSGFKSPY
Method in brief: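 Antagonist serially diluted (duplicates) on P2X7-expressing HEK cells in buffer with 0.5 μM YO-PRO-1; dye uptake followed on FLIPR Tetra over four time points. IC50 from maximum fluorescence intensity versus compound concentration.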

Compound	IC50
CN(c1ccc(Cl)c(C(=O)NCC2(CO)CCCCC2)c1)c1ccnc(Cl)n1 [Example 55, 2-Chloro-5-[(2-chloro-pyrimidin-4-yl)-methyl-amino]-N-(1-hydroxymethyl-cyclohexylmethyl)-benzamide]	482 nM
CN(c1ccc(Cl)c(C(=O)NCC2(O)CCCCC2)c1)c1ccn(C)c(=O)n1 [Example 19, 2-Chloro-N-(1-hydroxy-cyclohexylmethyl)-5-[methyl-(1-methyl-2-oxo-1,2-dihydro-pyrimidin-4-yl)-amino]-benzamide]	420 nM
CSc1nccc(Nc2ccc(Cl)c(C(=O)N[C@H](CO)C3CCCCC3)c2)n1 [Example 60, 2-Chloro-N—((S)-1-cyclohexyl-2-hydroxy-ethyl)-5-(2-methylsulfanyl-pyrimidin-4-ylamino)-benzamide]	1030 nM
CCN(c1ccc(Cl)c(C(=O)NCC2(O)CCCCC2)c1)c1ccnc(Cl)n1 [Example 20, 2-Chloro-5-[(2-chloro-pyrimidin-4-yl)-ethyl-amino]-N-(1-hydroxy-cyclohexylmethyl)-benzamide]	228 nM
CCN(c1ccc(Cl)c(C(=O)NCC2(O)CCCCC2)c1)c1cc[nH]c(=O)n1 [Example 21, 2-Chloro-5-[ethyl-(2-oxo-1,2-dihydro-pyrimidin-4-yl)-amino]-N-(1-hydroxy-cyclohexylmethyl)-benzamide]	17 nM
COCCN(c1ccccc1)c1ccc(Cl)c(C(=O)NCC2(O)CCCCC2)c1 [Example 3, 2-Chloro-N-(1-hydroxy-cyclohexylmethyl)-5-[(2-methoxy-ethyl)-phenyl-amino]-benzamide]	538 nM
CN(c1ccc(Cl)c(C(=O)NCC2(O)CCCCC2)c1)c1ccnc(=O)n1C [Example 18, 2-Chloro-N-(1-hydroxy-cyclohexylmethyl)-5-[methyl-(3-methyl-2-oxo-2,3-dihydro-pyrimidin-4-yl)-amino]-benzamide]	106 nM
COc1ccc(N(C)c2ccc(Cl)c(C(=O)NCC3(O)CCCCC3)c2)nn1 [Example 91, 2-Chloro-N-(1-hydroxy-cyclohexylmethyl)-5-[(6-methoxy-pyridazin-3-yl)-methyl-amino]-benzamide]	354 nM
CN(c1ccc(Cl)c(C(=O)N[C@H](CO)C2CCCCC2)c1)c1ccnc(Cl)n1 [Example 43, 2-Chloro-5-[(2-chloro-pyrimidin-4-yl)-methyl-amino]-N—((S)-1-cyclohexyl-2-hydroxy-ethyl)-benzamide]	136 nM
O=C(NCC1(O)CCCCC1)c1cc(Oc2ccncn2)ccc1Cl [Example 114, 2-Chloro-N-(1-hydroxy-cyclohexylmethyl)-5-(pyrimidin-4-yloxy)-benzamide]	100 nM
COc1cnc(N(C)c2ccc(Cl)c(C(=O)NCC3(O)CCCCC3)c2)cn1 [Example 88, 2-Chloro-N-(1-hydroxy-cyclohexylmethyl)-5-[(5-methoxy-pyrazin-2-yl)-methyl-amino]-benzamide]	302 nM
COc1nc(Cl)cc(N(C)c2ccc(Cl)c(C(=O)NCC3(O)CCCCC3)c2)n1 [Example 63, 2-Chloro-5-[(6-chloro-2-methoxy-pyrimidin-4-yl)-methyl-amino]-N-(1-hydroxy-cyclohexylmethyl)-benzamide]	307 nM
CN(c1ccc(Cl)c(C(=O)NCC2(O)CCCCC2)c1)c1cc(Cl)nc(Cl)n1 [Example 62, 2-Chloro-5-[(2,6-dichloro-pyrimidin-4-yl)-methyl-amino]-N-(1-hydroxy-cyclohexylmethyl)-benzamide]	416 nM
O=C(NCC1(O)CCCCC1)c1cc(Oc2ccc(Cl)nn2)ccc1Cl [Example 127, 2-Chloro-5-(6-chloro-pyridazin-3-yloxy)-N-(1-hydroxy-cyclohexylmethyl)-benzamide]	58 nM
CN(C)c1cccc(Oc2ccc(Cl)c(C(=O)NCC3(O)CCCCC3)c2)n1 [Example 110, 2-Chloro-5-(6-dimethylamino-pyridin-2-yloxy)-N-(1-hydroxy-cyclohexylmethyl)-benzamide]	122 nM
